Test results published in US20250163104A1, “MACROCYCLIC IMMUNOMODULATORS” (priority 2021, published 2025).
*1 amine or outer side, *2 acyl side, *3 side chain or, on linkers, in order; H or OH if unused. Where a SMILES comes first, the peptide text is derived from it. Bridges are numbered along the chain shown (N, C = ends). [ ]: non-standard residue; d: D form. The star is where a group is joined. ξ: configuration not given here. Phe(3-CF3) = N[C@@H](Cc1cccc(C(F)(F)F)c1)C(=O)O; Ala(morpholin-4-yl) = N[C@@H](CN1CCOCC1)C(=O)O; Phe(4-COOH) = N[C@@H](Cc1ccc(C(=O)O)cc1)C(=O)O; Bip = N[C@@H](Cc1ccc(-c2ccccc2)cc1)C(=O)O; Abu(3R-NH2) = C[C@@H](N)[C@H](N)C(=O)O; Phe(3-Me) = Cc1cccc(C[C@H](N)C(=O)O)c1; Val(3-OH) = CC(C)(O)[C@H](N)C(=O)O; 4Pal = N[C@@H](Cc1ccncc1)C(=O)O; Aad = N[C@@H](CCCC(=O)O)C(=O)O; Cha = N[C@@H](CC1CCCCC1)C(=O)O; Cit = NC(=O)NCCC[C@H](N)C(=O)O; Ile(3ξ) = CCC(C)[C@H](N)C(=O)O; X6 = O=C(C(CCCO)N[*:1])[*:2]; dNle = CCCC[C@@H](N)C(=O)O; Carboxymethyl = O=C(O)C*; Nle = CCCC[C@H](N)C(=O)O; Orn = NCCC[C@H](N)C(=O)O; Pra = C#CC[C@H](N)C(=O)O; Dab = NCC[C@H](N)C(=O)O; Nva = CCC[C@H](N)C(=O)O; Dap = NC[C@H](N)C(=O)O; X1 = C1CCC(*)CC1

target: T1, human PD-1 / PD-L1-Ig binding on Jurkat cell line over-expressing human PD-1 (Jurkat-PD-1) (Homo sapiens, UniProt Q15116); experiment: Jurkat-PD-1 Cell Binding High-Content Screening Assay (CBA); type: cell-based; details: Jurkat-PD-1 cells, PE-labeled PD-L1-Ig 20 nM final; read-out: Jurkat HPD1_PDL1 IC50
T1 construct: expressed in transfected cells; host or cells: Jurkat
Outline: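 Jurkat-hPD-1 cells in DMEM with 10% fetal calf serum receive test compound and are held at 37° C for 2 h. PE-labeled PD-L1-Ig is added at 20 nM final and left for 1 hour. Cells are then fixed and Hoechst-stained, and binding is measured by imaging.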

T1 sequence (Q15116 25-288): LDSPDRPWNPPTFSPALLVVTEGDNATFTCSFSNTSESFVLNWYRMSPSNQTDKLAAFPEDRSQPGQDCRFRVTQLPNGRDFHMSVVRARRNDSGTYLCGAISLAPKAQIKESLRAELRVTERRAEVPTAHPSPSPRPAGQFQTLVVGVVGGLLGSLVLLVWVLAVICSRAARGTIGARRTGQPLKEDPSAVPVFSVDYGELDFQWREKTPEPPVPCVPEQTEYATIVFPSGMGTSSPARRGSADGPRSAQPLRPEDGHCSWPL

| Compound | IC50 |
| --- | --- |
| CC(C)C[C@H]1NC(=O)[C@H](CCCN)NC(=O)[C@H](CCCNC(N)=O)NC(=O)[C@H](Cc2ccc(-c3ccccc3)cc2)NC(=O)[C@H](C(C)C)NC(=O)[C@H](Cc2c[nH]c3ccccc23)NC(=O)[C@H](CC(=O)O)NC(=O)[C@H](Cc2ccc(OCC(=O)O)cc2)NC(=O)[C@H](CN)NC(=O)CSC[C@@H](C(=O)N[C@@H](C)C(N)=O)NC(=O)[C@H]([C@@H](C)O)NC(=O)[C@H](C(C)C)NC(=O)[C@H](Cc2ccncc2)NC(=O)[C@H](CCN)NC1=O [Compound 1345] ({CH2CO}-[Dap]Y(Carboxymethyl)DWV[Bip][Cit][Orn][dL][Dab][4Pal]VTCA-NH2; thioether N-14) | 236 nM |
| CCC(C)[C@@H]1NC(=O)[C@H](Cc2ccc(-c3ccccc3)cc2)NC(=O)[C@H](Cc2ccc(OCC(=O)O)cc2)NC(=O)[C@H](Cc2cccc(C)c2)NC(=O)[C@H](CC(=O)O)NC(=O)[C@H](Cc2ccc(C(=O)O)cc2)NC(=O)[C@H](Cc2ccncc2)NC(=O)CSC[C@@H](C(=O)N[C@@H](CC(N)=O)C(N)=O)NC(=O)[C@H]([C@@H](C)O)NC(=O)[C@H](C(C)C)NC(=O)[C@H](CC2CCCCC2)NC(=O)[C@H](CCN)NC(=O)[C@@H](CC(C)C)NC(=O)[C@H](CCCN)NC1=O (stereo partly drawn) [Compound 2315] ({CH2CO}-[4Pal][Phe(4-COOH)]D[Phe(3-Me)]Y(Carboxymethyl)[Bip][Ile(3ξ)][Orn][dL][Dab][Cha]VTCN-NH2; thioether N-14) | 33.1 nM |
| C#CC[C@H](NC(=O)[C@H](CCN)NC(=O)[C@@H]1CSCC(=O)N[C@@H](CCC)C(=O)N[C@@H](Cc2ccc(OCC(=O)O)cc2)C(=O)N[C@@H](CC(=O)O)C(=O)N[C@@H](Cc2cccc(C)c2)C(=O)N[C@@H](Cc2ccc(OCC(=O)O)cc2)C(=O)N[C@@H](Cc2ccc(-c3ccccc3)cc2)C(=O)N[C@@H](Cc2ccc(OCC(=O)O)cc2)C(=O)N[C@@H](CCCN)C(=O)N[C@H](CC(C)C)C(=O)N[C@@H](CCN)C(=O)N[C@@H](CC2CCCCC2)C(=O)N[C@@H](C(C)C)C(=O)N[C@@H](CCC(=O)O)C(=O)N1)C(=O)O [Compound 1826] ({CH2CO}-[Nva]Y(Carboxymethyl)D[Phe(3-Me)]Y(Carboxymethyl)[Bip]Y(Carboxymethyl)[Orn][dL][Dab][Cha]VEC[Dab][Pra]-OH; thioether N-14) | 4 nM |
| CC(C)C[C@H]1NC(=O)[C@H](CCCN)NC(=O)[C@H](CCCNC(N)=O)NC(=O)[C@H](Cc2ccc(-c3ccccc3)cc2)NC(=O)[C@H](C(C)C)NC(=O)[C@H](Cc2c[nH]c3ccccc23)NC(=O)[C@H](CC(=O)O)NC(=O)[C@H](Cc2ccc(O)cc2)NC(=O)[C@H](CN)NC(=O)CSC[C@@H](C(=O)N[C@@H](C)C(N)=O)NC(=O)[C@H]([C@@H](C)O)NC(=O)[C@H](C(C)C)NC(=O)[C@H](CC2CCCCC2)NC(=O)[C@H](CCCNC(=N)N)NC1=O [Compound 1153] ({CH2CO}-[Dap]YDWV[Bip][Cit][Orn][dL]R[Cha]VTCA-NH2; thioether N-14) | 8.9 nM |
| CCCC[C@@H]1NC(=O)[C@H](CCN)NC(=O)[C@@H](CC(C)C)NC(=O)[C@H](CCCN)NC(=O)[C@H](CCCNC(N)=O)NC(=O)[C@H](Cc2ccc(-c3ccccc3)cc2)NC(=O)[C@H](C(C)C)NC(=O)[C@H](Cc2cccc(C)c2)NC(=O)[C@H](CC(=O)O)NC(=O)[C@H](Cc2ccc(C(=O)O)cc2)NC(=O)[C@H](CN)NC(=O)CSC[C@@H](C(=O)N[C@@H](C)C(N)=O)NC(=O)[C@H]([C@@H](C)O)NC(=O)[C@H](C(C)C)NC1=O [Compound 1201] ({CH2CO}-[Dap][Phe(4-COOH)]D[Phe(3-Me)]V[Bip][Cit][Orn][dL][Dab][Nle]VTCA-NH2; thioether N-14) | 3.4 nM |
| CCCC[C@H]1NC(=O)[C@H](CCCN)NC(=O)[C@H]([C@@H](C)CC)NC(=O)[C@H](Cc2ccc(-c3ccccc3)cc2)NC(=O)[C@H](C(C)C)NC(=O)[C@H](Cc2c[nH]c3ccccc23)NC(=O)[C@H](CC(=O)O)NC(=O)[C@H](Cc2ccncc2)NC(=O)[C@H](Cc2ccc(OCC(=O)O)cc2)NC(=O)CSC[C@@H](C(=O)N[C@@H](C)C(N)=O)NC(=O)[C@H]([C@@H](C)O)NC(=O)[C@H](C(C)C)NC(=O)[C@H](CC2CCCCC2)NC(=O)[C@H](CCN)NC1=O [Compound 1710] ({CH2CO}-Y(Carboxymethyl)[4Pal]DWV[Bip]I[Orn][dNle][Dab][Cha]VTCA-NH2; thioether N-14) | 33.9 nM |
| CC(C)C[C@H]1NC(=O)[C@H](CCCN)NC(=O)[C@H](Cc2ccc(C(=O)O)cc2)NC(=O)[C@H](Cc2ccc(-c3ccccc3)cc2)NC(=O)[C@H](Cc2ccc(C(=O)O)cc2)NC(=O)[C@H](Cc2cccc(C(F)(F)F)c2)NC(=O)[C@H](CC(N)=O)NC(=O)[C@H](Cc2ccc(C(=O)O)cc2)NC(=O)[C@H]([C@@H](C)N)NC(=O)CSC[C@@H](C(=O)N[C@@H](CCN)C(N)=O)NC(=O)[C@H](CO)NC(=O)[C@H](C(C)(C)O)NC(=O)[C@H](CC2CCCCC2)NC(=O)[C@H](CCN)NC1=O [Example 2717] ({CH2CO}-[Abu(3R-NH2)][Phe(4-COOH)]N[Phe(3-CF3)][Phe(4-COOH)][Bip][Phe(4-COOH)][Orn][dL][Dab][Cha][Val(3-OH)]SC[Dab]-NH2; thioether N-14) | 35.6 nM |

More lines, in order of falling IC50, values ahead:

| IC50 | Compound |
| --- | --- |
| 57.1 nM | CC(C)C[C@H]1NC(=O)[C@H](CCCN)NC(=O)[C@H](CCCNC(N)=O)NC(=O)[C@H](Cc2ccc(-c3ccccc3)cc2)NC(=O)[C@H](C(C)C)NC(=O)[C@H](Cc2c[nH]c3ccccc23)NC(=O)[C@H](CC(=O)O)NC(=O)[C@H](CCCC(=O)O)NC(=O)[C@H](CN)NC(=O)CSC[C@@H](C(=O)N[C@@H](C)C(N)=O)NC(=O)[C@H]([C@@H](C)O)NC(=O)[C@H](C(C)C)NC(=O)[C@H](CC2CCCCC2)NC(=O)[C@H](CCN)NC1=O [Compound 2125] ({CH2CO}-[Dap][Aad]DWV[Bip][Cit][Orn][dL][Dab][Cha]VTCA-NH2; thioether N-14) |
| 14.8 nM | CC[C@H](C)[C@@H]1NC(=O)[C@H](Cc2ccc(-c3ccccc3)cc2)NC(=O)[C@H](C(C)C)NC(=O)[C@H](Cc2c[nH]c3ccccc23)NC(=O)[C@H](CC(=O)O)NC(=O)[C@H](Cc2ccc(O)cc2)NC(=O)[C@H](CC(N)=O)NC(=O)CSC[C@@H](C(=O)NCC(N)=O)NC(=O)[C@H](CO)NC(=O)[C@H](C(C)C)NC(=O)[C@H](CC(C)C)NC(=O)[C@H](CCN)NC(=O)[C@@H](CC(C)C)NC(=O)[C@H](CCN)NC1=O [Compound 1123] ({CH2CO}-NYDWV[Bip]I[Dab][dL][Dab]LVSCG-NH2; thioether N-14) |
| 14.5 nM | CC(C)C[C@@H]1NC(=O)[C@H](Cc2c[nH]c3ccccc23)NC(=O)[C@H](CC(=O)O)NC(=O)[C@H](Cc2ccc(O)cc2)NC(=O)[C@H](Cc2ccccc2)NC(=O)CSC[C@@H](C(=O)N[C@@H](C)C(N)=O)NC(=O)[C@H](CO)NC(=O)[C@H](C(C)C)NC(=O)[C@H](CC(C)C)NC(=O)[C@H](CCN)NC(=O)[C@@H](CC(C)C)NC(=O)[C@H](CCN)NC(=O)[C@H](CCC(=O)O)NC(=O)[C@H](Cc2ccc(-c3ccccc3)cc2)NC1=O [Compound 1229] ({CH2CO}-FYDWL[Bip]E[Dab][dL][Dab]LVSCA-NH2; thioether N-14) |
| 9.6 nM | CC(C)C[C@H]1NC(=O)[C@H](CCCN)NC(=O)[C@H](C(C)C)NC(=O)[C@H](Cc2ccc(-c3ccccc3)cc2)NC(=O)[C@H](C(C)C)NC(=O)[C@H](Cc2c[nH]c3ccccc23)NC(=O)[C@H](CC(=O)O)NC(=O)[C@H](Cc2ccncc2)NC(=O)[C@H](CN)NC(=O)CSC[C@@H](C(=O)N[C@@H](C)C(N)=O)NC(=O)[C@H]([C@@H](C)O)NC(=O)[C@H](C(C)C)NC(=O)[C@H](CC2CCCCC2)NC(=O)[C@H](Cc2cnc[nH]2)NC1=O [Compound 1611] |
| 7.7 nM | Cc1cccc(C[C@@H]2NC(=O)[C@H](CC(=O)O)NC(=O)[C@H](Cc3ccc(OCC(=O)O)cc3)NC(=O)[C@H](CN)NC(=O)CSC[C@@H](C(=O)N[C@@H](CCN)C(N)=O)NC(=O)C(CCCO)NC(=O)[C@H](C(C)C)NC(=O)[C@H](CC3CCCCC3)NC(=O)[C@H](CCN)NC(=O)[C@@H](CC(C)C)NC(=O)[C@H](CCCN)NC(=O)[C@H](Cc3ccc(O)cc3)NC(=O)[C@H](Cc3ccc(-c4ccccc4)cc3)NC(=O)[C@H](C(C)C)NC2=O)c1 (stereo partly drawn) [Compound 2257] ({CH2CO}-[Dap]Y(Carboxymethyl)D[Phe(3-Me)]V[Bip]Y[Orn][dL][Dab][Cha]V[X6]C[Dab]-NH2; thioether N-14) |
| 5.2 nM | Cc1cccc(C[C@@H]2NC(=O)[C@H](CC(=O)O)NC(=O)[C@H](Cc3ccc(C(=O)O)cc3)NC(=O)[C@H](Cc3ccncc3)NC(=O)CSC[C@@H](C(=O)N[C@@H](CCN)C(N)=O)NC(=O)[C@H](CO)NC(=O)[C@H](C(C)(C)O)NC(=O)[C@H](CC3CCCCC3)NC(=O)[C@H](CCN)NC(=O)[C@@H](CC(C)C)NC(=O)[C@H](CCCN)NC(=O)[C@H](Cc3ccc(OCC(=O)O)cc3)NC(=O)[C@H](Cc3ccc(-c4ccccc4)cc3)NC(=O)[C@H](Cc3ccc(OCC(=O)O)cc3)NC2=O)c1 [Compound 2293] ({CH2CO}-[4Pal][Phe(4-COOH)]D[Phe(3-Me)]Y(Carboxymethyl)[Bip]Y(Carboxymethyl)[Orn][dL][Dab][Cha][Val(3-OH)]SC[Dab]-NH2; thioether N-14) |
| 2 nM | CC(C)C[C@H]1NC(=O)[C@H](CCCN)NC(=O)[C@H](Cc2ccc(C(=O)O)cc2)NC(=O)[C@H](Cc2ccc(-c3ccccc3)cc2)NC(=O)[C@H](Cc2ccc(OC3CCCCC3)cc2)NC(=O)[C@H](Cc2cccc(C(F)(F)F)c2)NC(=O)[C@H](CC(=O)O)NC(=O)[C@H](Cc2ccc(C(=O)O)cc2)NC(=O)[C@H](CN2CCOCC2)NC(=O)CSC[C@@H](C(=O)N[C@@H](CCN)C(N)=O)NC(=O)[C@H](CCC(=O)O)NC(=O)[C@H](C(C)C)NC(=O)[C@H](CC2CCCCC2)NC(=O)[C@H](CCN)NC1=O [Example 2729] ({CH2CO}-[Ala(morpholin-4-yl)][Phe(4-COOH)]D[Phe(3-CF3)]Y(X1)[Bip][Phe(4-COOH)][Orn][dL][Dab][Cha]VEC[Dab]-NH2; thioether N-14) |
